Results reported in patent US8461170B2, “Chemical compounds” (Astrazeneca AB, priority 2010, dated 2013).
Like-named read-outs stand apart in the source and are kept apart here.

Tests used:
human ALK = molecular target: T1, human ALK (Homo sapiens, UniProt Q9UM73); test: ALK kinase mobility shift assay (Caliper LC3000); format: biochemical; details: ATP 30 μM (Km) or 5 mM, not specified which
T1 construct: GST (N); purchased Invitrogen, Carlsbad, Calif; (or prepared by AstraZeneca); host or cells: insect cells
T1 sequence (Q9UM73 1058-1620): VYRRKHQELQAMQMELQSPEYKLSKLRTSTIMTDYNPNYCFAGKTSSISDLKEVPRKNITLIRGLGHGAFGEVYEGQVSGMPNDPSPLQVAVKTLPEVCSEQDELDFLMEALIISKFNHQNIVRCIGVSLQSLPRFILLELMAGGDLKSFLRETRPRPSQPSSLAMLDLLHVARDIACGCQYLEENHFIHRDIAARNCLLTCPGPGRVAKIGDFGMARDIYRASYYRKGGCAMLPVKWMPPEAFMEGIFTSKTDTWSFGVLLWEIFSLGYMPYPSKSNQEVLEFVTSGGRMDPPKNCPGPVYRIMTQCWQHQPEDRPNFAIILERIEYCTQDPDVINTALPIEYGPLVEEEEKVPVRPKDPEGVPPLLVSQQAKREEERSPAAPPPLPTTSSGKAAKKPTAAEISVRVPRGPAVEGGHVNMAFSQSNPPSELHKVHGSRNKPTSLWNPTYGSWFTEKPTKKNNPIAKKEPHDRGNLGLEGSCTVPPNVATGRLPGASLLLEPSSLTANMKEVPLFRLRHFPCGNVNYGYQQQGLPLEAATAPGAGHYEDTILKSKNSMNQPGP
Procedure: ALK kinase activity was determined by measuring the kinase's ability to phosphorylate a tyrosine residue within a peptide substrate using a mobility shift assay on a Caliper LC3000 reader (Caliper Life Sciences, Hopkinton, Mass.), which measures fluorescence of the phosphorylated and unphosphorylated substrate and calculates a ratiometric value to determine percent turnover.
To measure ALK kinase activity, the ALK enzyme used was N-terminal GST-tagged, recombinant, human ALK, amino acids 1058-1620 (Genbank Accession number NP_004295) expressed in insect cells and activated in-vitro via autophosphorylation. This was either purchased from a commercially available source (Invitrogen, Carlsbad, Calif.) or prepared by AstraZeneca. The kinase was incubated with a FAM labeled SRCtide substrate (5FAM-GEEPLYWSFPAKKK-NH2, AnaSpec, Fremont, Calif.), 30 μM adenosine triphosphate (ATP, at Km concentration) or 5 mM ATP, 50 mM HEPES buffer (pH 7.3), 1 mM DTT, 0.01% Tween 20, 50 μg/ml BSA and 10 mM MgCl2 for 90 minutes at room temperature. After this time, the kinase reaction was stopped by adding quenching buffer containing final concentrations of 36 mM ethylenediaminetetraacetic acid (EDTA), 65 mM HEPES buffer (pH 7.3), 0.2% Coatin Reagent 3 (Caliper Life Sciences, Hopkinton, Mass.), and 0.003% Tween 20. The reaction was performed in 384 well microtitre plates and the reaction products were detected using the Caliper LC3000 Reader in the presence of separation buffer consisting of 100 mM HEPES (pH 7.3), 15.8 mM EDTA, 0.1% Coatin Reagent 3 (Caliper, Mass.), 0.015% Brij-35, 5% DMSO, and 5.6 mM MgCl2. The separation conditions set up on the Caliper LC3000 were −1.7 PSI, −400V upstream voltage, −2000V downstream voltage, 0.2 second sample sip, 45 second post sip, and 150 seconds final delay. The percentage of inhibition of ALK enzyme activity by compounds were measured based on Max signals (DMSO control) and Min signals (EDTA control) in the plates. Data was graphed and IC50s calculated by IDBS ActivityBase program.

ALK (h) = ALK (h) (Homo sapiens, UniProt Q9UM73); test: alternate ALK protocol (33P-ATP filter-binding radiometric assay); format: biochemical; details: 250 μM KKKSPGEYVNIEFG substrate, [γ-33P-ATP], 40 minutes at room temperature, read-out: ALK inhibitory activities (IC50s (μM))
Chain of ALK (h) (Q9UM73 19-1620): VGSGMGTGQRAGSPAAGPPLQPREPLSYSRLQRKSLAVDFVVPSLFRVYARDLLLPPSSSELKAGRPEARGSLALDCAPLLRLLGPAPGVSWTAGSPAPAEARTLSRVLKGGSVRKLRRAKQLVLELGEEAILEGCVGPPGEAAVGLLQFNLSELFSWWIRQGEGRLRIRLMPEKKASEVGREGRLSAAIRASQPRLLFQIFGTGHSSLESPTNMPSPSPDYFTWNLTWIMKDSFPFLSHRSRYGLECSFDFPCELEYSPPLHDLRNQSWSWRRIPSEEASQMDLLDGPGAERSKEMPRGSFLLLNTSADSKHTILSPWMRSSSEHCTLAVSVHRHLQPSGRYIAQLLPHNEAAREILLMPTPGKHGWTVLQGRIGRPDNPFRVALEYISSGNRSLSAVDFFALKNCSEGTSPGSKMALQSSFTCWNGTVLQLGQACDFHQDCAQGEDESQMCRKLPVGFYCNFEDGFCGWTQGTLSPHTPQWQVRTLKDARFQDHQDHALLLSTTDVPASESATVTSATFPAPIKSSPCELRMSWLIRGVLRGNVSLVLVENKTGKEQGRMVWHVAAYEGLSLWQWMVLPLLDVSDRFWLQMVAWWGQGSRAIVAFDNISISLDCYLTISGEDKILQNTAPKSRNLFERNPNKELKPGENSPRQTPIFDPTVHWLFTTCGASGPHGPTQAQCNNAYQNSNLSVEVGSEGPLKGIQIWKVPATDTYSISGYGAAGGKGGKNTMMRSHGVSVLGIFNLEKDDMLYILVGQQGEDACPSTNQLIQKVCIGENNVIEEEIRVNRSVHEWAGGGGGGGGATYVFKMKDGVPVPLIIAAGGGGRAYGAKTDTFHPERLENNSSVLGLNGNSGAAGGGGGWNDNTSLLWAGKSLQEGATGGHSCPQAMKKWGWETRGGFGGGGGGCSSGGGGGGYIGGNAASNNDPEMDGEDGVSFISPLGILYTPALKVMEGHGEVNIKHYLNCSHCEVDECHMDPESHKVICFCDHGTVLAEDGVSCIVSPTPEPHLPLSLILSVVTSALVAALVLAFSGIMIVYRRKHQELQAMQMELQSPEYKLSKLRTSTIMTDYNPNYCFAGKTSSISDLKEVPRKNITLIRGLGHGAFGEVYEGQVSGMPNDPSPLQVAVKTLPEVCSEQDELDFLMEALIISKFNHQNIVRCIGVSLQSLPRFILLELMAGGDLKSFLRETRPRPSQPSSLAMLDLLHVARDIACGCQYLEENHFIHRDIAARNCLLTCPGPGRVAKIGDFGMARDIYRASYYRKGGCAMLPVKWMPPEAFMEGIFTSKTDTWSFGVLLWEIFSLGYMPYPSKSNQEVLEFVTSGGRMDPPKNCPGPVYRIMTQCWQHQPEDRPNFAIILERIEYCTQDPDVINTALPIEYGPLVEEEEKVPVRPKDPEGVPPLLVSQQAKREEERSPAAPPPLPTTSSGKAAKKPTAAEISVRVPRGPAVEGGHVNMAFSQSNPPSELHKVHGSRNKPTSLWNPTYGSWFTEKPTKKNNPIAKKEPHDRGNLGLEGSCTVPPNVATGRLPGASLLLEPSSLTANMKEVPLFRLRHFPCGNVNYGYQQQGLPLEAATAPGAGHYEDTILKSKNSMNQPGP
Procedure: Examples 1, 9 and 10 were additionally tested using an alternate ALK protocol as follows: ALK (h) was incubated with 8 mM MOPS pH 7.0, 0.2 mM EDTA, 250 μM KKKSPGEYVNIEFG, 10 mM MgAcetate and [γ-33P-ATP] (specific activity approx. 500 cpm/pmol, concentration as required). The reaction was initiated by the addition of the MgATP mix. After incubation for 40 minutes at room temperature, the reaction was stopped by the addition of 3% phosphoric acid solution. 10 μL of the reaction was spotted onto a P30 filtermat and washed three times for 5 minutes in 75 mM phosphoric acid and once in methanol prior to drying and scintillation counting. When tested in the assay described above, Examples 1, 9 and 10 each had ALK inhibitory activities (IC50s (μM)) of 0.004, 0.019, and 0.006, respectively.

[1] = cumulative geometric means including test re-runs, some obtained since the priority filings, read-out: ALK Enzyme IC50 (μM)**
[2] = geometric means of multiple test runs, as presented in the priority filings, read-out: ALK Enzyme IC50 (μM)*

Row | SMILES | IC50 (human ALK; [1]) | IC50 (human ALK; [2]) | IC50 (ALK (h))
1 | COc1cc(N2CCC(N)CC2)ccc1Nc1ncc(Cl)c(-c2c[nH]c3ccccc23)n1 [Example 1, N-(4-(4-Aminopiperidin-1-yl)-2-methoxyphenyl)-5-chloro-4-(1H-indol-3-yl)pyrimidin-2-amine] | 0.021 µM | 0.015 µM | 0.004 µM
2 | COc1cc(N2CCC(N3CCN(C)CC3)CC2)ccc1Nc1ncc(C)c(-c2c[nH]c3ccccc23)n1 [Example 9, 4-(1H-Indol-3-yl)-N-(2-methoxy-4-(4-(4-methylpiperazin-1-yl)piperidin-1-yl)phenyl)-5-methylpyrimidin-2-amine] | 0.068 µM | 0.05 µM | 0.019 µM
3 | COc1cc(N2CCC(N3CCN(C)CC3)CC2)ccc1Nc1ncc(Cl)c(-c2c[nH]c3ccccc23)n1 [Example 10, 5-Chloro-4-(1H-indol-3-yl)-N-(2-methoxy-4-(4-(4-methylpiperazin-1-yl)piperidin-1-yl)phenyl)pyrimidin-2-amine] | – | 0.02 µM | 0.006 µM
4 | COc1cc(N2CCC(N3C[C@@H](C)O[C@@H](C)C3)CC2)ccc1Nc1ncc(Cl)c(-c2c[nH]c3ccccc23)n1 [Example 24, 5-Chloro-N-(4-(4-((2S,6R)-2,6-dimethylmorpholino)piperidin-1-yl)-2-methoxyphenyl)-4-(1H-indol-3-yl)pyrimidin-2-amine] | – | 0.14 µM | –
5 | COc1cc(N2CCC(N3CC[C@@H](F)C3)CC2)c(C)cc1Nc1ncc(Cl)c(-c2c[nH]c3ccccc23)n1 [Example 25, (R)-5-Chloro-N-(4-(4-(3-fluoropyrrolidin-1-yl)piperidin-1-yl)-2-methoxy-5-methylphenyl)-4-(1H-indol-3-yl)pyrimidin-2-amine] | – | 0.39 µM | –
6 | COc1cc(N2CCC(NC3COC3)CC2)ccc1Nc1ncc(Cl)c(-c2c[nH]c3ccccc23)n1 [Example 26, 5-Chloro-4-(1H-indol-3-yl)-N-(2-methoxy-4-(4-(oxetan-3-ylamino)piperidin-1-yl)phenyl)pyrimidin-2-amine] | – | 0.113 µM | –
7 | COc1cc(N2CCC(N3CCN(C)CC3)CC2)ccc1Nc1ncc(Br)c(-c2c[nH]c3ccccc23)n1 [Example 27] | – | 0.033 µM | –
8 | COc1cc(N2CCC(N3CCN(C)CC3)CC2)ccc1Nc1ncc(C#N)c(-c2c[nH]c3ccccc23)n1 [Example 28, 4-(1H-Indol-3-yl)-2-(2-methoxy-4-(4-(4-methylpiperazin-1-yl)piperidin-1-yl)phenylamino)pyrimidine-5-carbonitrile] | – | 0.024 µM | –
9 | COc1cc(N2CCC(N(C)C)CC2)ccc1Nc1ncc(C(F)(F)F)c(-c2c[nH]c3ccccc23)n1 [Example 29, N-(4-(4-(dimethylamino)piperidin-1-yl)-2-methoxyphenyl)-4-(1H-indol-3-yl)-5-(trifluoromethyl)pyrimidin-2-amine] | – | 0.021 µM | –
10 | COc1cc(N2CCC(N)C(C)(C)C2)ccc1Nc1ncc(Cl)c(-c2c[nH]c3ccccc23)n1 (stereo not drawn) [Example 30, N-(4-(4-amino-3,3-dimethylpiperidin-1-yl)-2-methoxyphenyl)-5-chloro-4-(1H-indol-3-yl)pyrimidin-2-amine] | 0.151 µM | 0.182 µM | –
11 | CNC1CCN(c2ccc(Nc3ncc(Cl)c(-c4c[nH]c5ccccc45)n3)c(OC)c2)CC1(C)C (stereo not drawn) [Example 31, 5-chloro-N-(4-(3,3-dimethyl-4-(methylamino)piperidin-1-yl)-2-methoxyphenyl)-4-(1H-indol-3-yl)pyrimidin-2-amine] | 0.136 µM | 0.088 µM | –
12 | COc1cc(N2CCC(N(C)C)C(C)(C)C2)ccc1Nc1ncc(Cl)c(-c2c[nH]c3ccccc23)n1 (stereo not drawn) [Example 32, 5-chloro-N-(4-(4-(dimethylamino)-3,3-dimethylpiperidin-1-yl)-2-methoxyphenyl)-4-(1H-indol-3-yl)pyrimidin-2-amine] | 0.356 µM | 0.343 µM | –
13 | COc1cc(N2CC[C@H](N)[C@H](F)C2)ccc1Nc1ncc(Cl)c(-c2c[nH]c3ccccc23)n1 [Example 33, N-(4-((3R,4S)-4-amino-3-fluoropiperidin-1-yl)-2-methoxyphenyl)-5-chloro-4-(1H-indol-3-yl)pyrimidin-2-amine] | 0.03 µM | 0.025 µM | –
14 | COc1cc(N2CCC(N3CCN(C)CC3)CC2)ccc1Nc1ncc(Cl)c(-c2cn(C)c3ccccc23)n1 [Example 34, 5-Chloro-N-(2-methoxy-4-(4-(4-methylpiperazin-1-yl)piperidin-1-yl)phenyl)-4-(1-methyl-1H-indol-3-yl)pyrimidin-2-amine] | – | 0.148 µM | –
15 | COc1cc(N2CCC(N)CC2)ccc1Nc1ncc(Cl)c(-c2cn(C)c3ccccc23)n1 [Example 35, N-(4-(4-aminopiperidin-1-yl)-2-methoxyphenyl)-5-chloro-4-(1-methyl-1H-indol-3-yl)pyrimidin-2-amine] | – | 0.098 µM | –
16 | COc1cc(N2CCC(N3CCN(C)CC3)CC2)ccc1Nc1ncc(F)c(-c2cn(C)c3ccccc23)n1 [Example 36, 5-fluoro-N-(2-methoxy-4-(4-(4-methylpiperazin-1-yl)piperidin-1-yl)phenyl)-4-(1-methyl-1H-indol-3-yl)pyrimidin-2-amine] | – | 1.48 µM | –
17 | COc1cc(N2CCC(N3CCN(C)CC3)CC2)c(F)cc1Nc1ncc(F)c(-c2c[nH]c3ccccc23)n1 [Example 37, 5-Fluoro-N-[5-fluoro-2-methoxy-4-[4-(4-methylpiperazin-1-yl)-1-piperidyl]phenyl]-4-(1H-indol-3-yl)pyrimidin-2-amine] | – | 0.244 µM | –
18 | COc1cc(N2CCC(N3CCN(C)CC3)CC2)c(F)cc1Nc1ncc(C)c(-c2c[nH]c3ccccc23)n1 [Example 38, N-[5-fluoro-2-methoxy-4-[4-(4-methylpiperazin-1-yl)-1-piperidyl]phenyl]-4-(1H-indol-3-yl)-5-methyl-pyrimidin-2-amine] | – | 0.258 µM | –
19 | COc1cc(N2CCC(N3CCN(C)CC3)CC2)c(F)cc1Nc1ncc(Cl)c(-c2c[nH]c3ccccc23)n1 [Example 39, 5-chloro-N-[5-fluoro-2-methoxy-4-[4-(4-methylpiperazin-1-yl)-1-piperidyl]phenyl]-4-(1H-indol-3-yl)pyrimidin-2-amine] | – | 0.225 µM | –
20 | COc1cc(N2CCC(N3CCN(C)CC3)CC2)c(Cl)cc1Nc1ncc(Cl)c(-c2c[nH]c3ccccc23)n1 [Example 40, 5-chloro-N-[5-chloro-2-methoxy-4-[4-(4-methylpiperazin-1-yl)-1-piperidyl]phenyl]-4-(1H-indol-3-yl)pyrimidin-2-amine] | – | 0.198 µM | –
21 | COc1cc(N2CCC(N)CC2)ccc1Nc1ncc(F)c(-c2c[nH]c3ccccc23)n1 [Example 41, N-[4-(4-Amino-1-piperidyl)-2-methoxy-phenyl]-5-fluoro-4-(1H-indol-3-yl)pyrimidin-2-amine] | – | 0.068 µM | –
